Laboratory results published in ChEMBL document CHEMBL3994623, “The synthesis and antistaphylococcal activity of 9, 13-disubstituted berberine derivatives” (Eur J Med Chem, 2017).
Values after ≈ are worked out from the molar mass of the structure shown.

Legend:
Staphylococcus aureus [1] = test: Antistaphylococcal activity against gentamicin-resistant Staphylococcus aureus NRS-108 after 18 hrs by two fold serial dilution method; format: functional; conditions: NRS-108, 18 h
Staphylococcus aureus [2] = test: Antistaphylococcal activity against Staphylococcus aureus Newman after 18 hrs by two fold serial dilution method; format: functional
Staphylococcus aureus [3] = test: Antistaphylococcal activity against erythromycin-resistant Staphylococcus aureus NRS-70 after 18 hrs by two fold serial dilution method; format: functional; conditions: NRS-70, 18 h
Staphylococcus aureus [4] = test: Antistaphylococcal activity against linezolid-resistant Staphylococcus aureus NRS-271 containing phage type E-MRSA after 18 hrs by two fold serial dilution method; format: functional; conditions: NRS-271, 18 h
[5] = Cytotoxicity against HAF assessed as decrease in cell viability after 24 hrs by MTS assay; format: cell-based; conditions: Homo sapiens
Staphylococcus aureus [6] = test: Antistaphylococcal activity against aminoglycosides/tetracycline-resistant Staphylococcus aureus NRS-1 after 18 hrs by two fold serial dilution method; format: functional; conditions: NRS-1, 18 h
Staphylococcus aureus [7] = test: Antistaphylococcal activity against oxacillin/tetracycline-resistant Staphylococcus aureus NRS-100 after 18 hrs by two fold serial dilution method; format: functional; conditions: NRS-100, 18 h
[8] = Cytotoxicity against HAF assessed as effect on cell morphology at 12.5 ug/ml after 24 hrs by hematoxylin-eosin staining-based contrast microscopic method; conditions: human
[9] = Cytotoxicity against HAF assessed as effect on cell morphology at […] ug/ml after 24 hrs by hematoxylin-eosin staining-based contrast microscopic method; conditions: human
Staphylococcus aureus [10] = test: Potency index, ratio of totarol MIC to test compound MIC for linezolid-resistant Staphylococcus aureus NRS-271 containing phage type E-MRSA; format: functional
Staphylococcus aureus [11] = test: Potency index, ratio of totarol MIC to test compound MIC for erythromycin-resistant Staphylococcus aureus NRS-70; format: functional
Staphylococcus aureus [12] = test: Potency index, ratio of totarol MIC to test compound MIC for oxacillin/tetracycline-resistant Staphylococcus aureus NRS-100; format: functional
Staphylococcus aureus [13] = test: Potency index, ratio of totarol MIC to test compound MIC for gentamicin-resistant Staphylococcus aureus NRS-108
Staphylococcus aureus [14] = test: Potency index, ratio of totarol MIC to test compound MIC for aminoglycosides/tetracycline-resistant Staphylococcus aureus NRS-1; format: functional

Compound | MIC (Staphylococcus aureus [1]) [µg/mL] | MIC (Staphylococcus aureus [2]) [µg/mL] | MIC (Staphylococcus aureus [3]) [µg/mL] | MIC (Staphylococcus aureus [4]) [µg/mL] | IC50 [5] [µg/mL] | MIC (Staphylococcus aureus [6]) [µg/mL] | MIC (Staphylococcus aureus [7]) [µg/mL] | further results
CCCCCNc1c(OC)ccc2c(Cc3ccccc3)c3[n+](cc12)CCc1cc2c(cc1-3)OCO2.[Br-] | 1.56 | 1.56 | 1.56 | 1.56 | 15.8 | 3.13 | 1.56 | 
CCCCCNc1c(OC)ccc2c(CC(=O)OCC)c3[n+](cc12)CCc1cc2c(cc1-3)OCO2.[Br-] |  | 12.5 |  |  |  |  |  | 
COc1ccc2c(Cc3ccc(C)cc3)c3[n+](cc2c1OC)CCc1cc2c(cc1-3)OCO2.[Br-] |  | 6.25 |  |  |  |  |  | 
CCCCCCNc1c(OC)ccc2c(Cc3ccccc3)c3[n+](cc12)CCc1cc2c(cc1-3)OCO2.[Br-] | 3.13 | 2.5 | 1.56 | 3.13 |  | 1.56 | 3.13 | 
CCCCNc1c(OC)ccc2c(Cc3ccc(OC)cc3)c3[n+](cc12)CCc1cc2c(cc1-3)OCO2.[Br-] | 3.13 | 2.5 | 3.13 | 6.25 |  | 6.25 | 6.25 | 
CCCCCNc1c(OC)ccc2c(CCCN3CCCCC3)c3[n+](cc12)CCc1cc2c(cc1-3)OCO2.[I-] |  | > 25 |  |  |  |  |  | 
CCCCCNc1c(OC)ccc2c(Cc3ccc(F)cc3)c3[n+](cc12)CCc1cc2c(cc1-3)OCO2.[Br-] | 1.56 | 1.25 | 1.56 | 1.56 | 12.7 | 3.13 | 3.13 | 
COc1ccc2c(Cc3ccc(C)cc3)c3[n+](cc2c1NCCCc1ccccc1)CCc1cc2c(cc1-3)OCO2.[Br-] |  | 3.13 |  |  |  |  |  | 
CCCCCNc1c(OC)ccc2cc3[n+](cc12)CCc1cc2c(cc1-3)OCO2.[Cl-] |  | 3.13 |  |  |  |  |  | 
CN[C@H](CC(C)C)C(=O)N[C@H]1C(=O)N[C@@H](CC(N)=O)C(=O)N[C@H]2C(=O)N[C@H]3C(=O)N[C@H](C(=O)N[C@H](C(=O)O)c4cc(O)cc(O)c4-c4cc3ccc4O)[C@H](O)c3ccc(c(Cl)c3)Oc3cc2cc(c3O[C@@H]2O[C@H](CO)[C@@H](O)[C@H](O)[C@H]2O[C@H]2C[C@](C)(N)[C@H](O)[C@H](C)O2)Oc2ccc(cc2Cl)[C@H]1O [VANCOMYCIN] | 0.39 (≈ 0.269 µM) | 0.78 (≈ 0.538 µM) | 0.39 (≈ 0.269 µM) | 0.39 (≈ 0.269 µM) |  | 1.56 (≈ 1.08 µM) | 0.78 (≈ 0.538 µM) | 
CCCCCNc1c(OC)ccc2c(CCCN3CCOCC3)c3[n+](cc12)CCc1cc2c(cc1-3)OCO2.[I-] |  | > 25 |  |  |  |  |  | 
CCCCCNc1c(OC)ccc2c(Cc3ccc(O)cc3)c3[n+](cc12)CCc1cc2c(cc1-3)OCO2.[Br-] | 3.13 | 2.5 | 1.56 | 3.13 | > 20 | 6.25 | 3.13 | Activity [8]: Toxic; Activity [9]: Non-Toxic
CCCCCNc1c(OC)ccc2c(Cc3ccc(C)c(C)c3)c3[n+](cc12)CCc1cc2c(cc1-3)OCO2.[Br-] | 1.56 | 1.25 | 1.56 | 1.56 | 12.5 | 3.13 | 1.56 | 
CCCCCNc1c(OC)ccc2c(Cc3ccc(OC)cc3)c3[n+](cc12)CCc1cc2c(cc1-3)OCO2.[Br-] | 1.56 | 1.25 | 1.56 | 1.56 | 13.8 | 1.56 | 3.13 | 
CCCCCNc1c(OC)ccc2c(Cc3ccc(C)cc3)c3[n+](cc12)CCc1cc2c(cc1-3)OCO2.[Br-] | 1.56 | 0.78 | 1.56 | 1.56 | 12.5 | 1.56 | 0.78 | Ratio (Staphylococcus aureus [10]): 1 - 4; Ratio (Staphylococcus aureus [11]): 1 - 4; Activity [8]: Toxic; Ratio (Staphylococcus aureus [12]): 1 - 4; Ratio (Staphylococcus aureus [13]): 1 - 4; Ratio (Staphylococcus aureus [14]): 1 - 4; Activity [9]: Non-Toxic
CCCCCNc1c(OC)ccc2c(CCCN3CCCC3)c3[n+](cc12)CCc1cc2c(cc1-3)OCO2.[I-] |  | > 25 |  |  |  |  |  | 
